From US20180171411A1, “GFRalpha1 AS A BIOMARKER FOR CISPLATIN-INDUCED CHEMORESISTANCE AND METASTASIS” (THE BOARD OF REGENTS OF THE UNIVERSITY OF TEXAS SYSTEM, priority 2015, published 2018)

Test system: LC3 puncta in MG-63 cells
Test: LC3 puncta formation (mRFP-GFP-LC3 reporter)
Assay type: cell-based, human
Settings: for LC3 puncta formation: cisplatin 20 μM, 24 hr
Description: FIG. 3. GFRα1-induced autophagy enhances the chemoresistance of osteosarcoma cells induced by cisplatin. (a) Control and GFRα1-deficient MG-63 cells were transiently transfected with a mRFP-GFP tandem fluorescent-tagged LC3 (mRFP-GFP-LC3) vector and then treated with cisplatin (20μM) for 24 hr. Left, representative images of RFP-LC3 and GFP-LC3 puncta. Scale bar, 20 μm. Right, quantitative analysis of the number of yellow puncta and the number of RFP-LC3 puncta in the combined images. The values are represented as a mean±s.d.m. (n=3). ** denotes p<0.05 by t-test. (b) Control and GFRα1-deficient MG-63 cells were treated with cisplatin (20 μM) for 24 hr and then stained with acridine orange. Top, representative images of cells stained with acridine orange. Scale bar, 20 μm. Bottom, quantitative analysis of the number of AVOs. The values are represented as a mean±s.d.m. (n=3). ** denotes p<0.05 by t-test. (c) Control and GFRα1-deficient MG-63 cells were treated with cisplatin (20 μM) for 24 hr and then analyzed by TEM. Top, representative images of autophagic vacuoles (yellow arrows) detected after cisplatin treatment in control MG-63 cells. Scale bar, 100 nm. Bottom, quantitative analysis of the number of autophagic vacuoles. The values are represented as a mean±s.d.m. (n=3). ** denotes p<0.05 by t-test. (d) Immunoblot analysis of control and GFRα1-overexpressing osteosarcoma cell lysates with antibodies specific for GFRα1, LC3 and β-actin. GFRα1-overexpressing MG-63 cells were treated with DMSO, 3-MA (10 μM) or Baf (100 nM). (e) Quantitative analysis of the number of yellow puncta and the number of RFP-LC3 puncta in control and GFRα1-overexpressing MG-63 cells. Control and GFRα1-overexpressing MG-63 cells were transiently transfected with an RFP-GFP tandem fluorescent-tagged LC3 (mRFP-GFP-LC3) and then treated with cisplatin (20 μM) for 24 hr. […] (g) Control and GFRα1-overexpressing MG-63 cells were treated with cisplatin (20 μM) for 24 hr and then stained with acridine orange. Top, representative images of cells stained with acridine orange. Scale bar, 20 μm. Bottom, quantitative analysis of the number of AVOs. The values are represented as a mean±s.d.m. (n=3). ** denotes p<0.05 by t-test. (h) Control and GFRα1-overexpressing MG-63 cells were treated with cisplatin (20 μM) for 24 hr and then analyzed by TEM. Top, representative images of autophagic vacuoles detected after cisplatin treatment in control and GFRα1-overexpressing MG-63 cells. Scale bar, 100 nm. Bottom, quantitative analysis of the number of autophagic vacuoles. The values are represented as a mean±s.d.m. (n=3). ** denotes p<0.05 by t-test. (i) Cell viability of GFRα1-overexpressing osteosarcoma cells after cisplatin treatment in the presence of autophagy inhibitors. Control or GFRα1-overexpressing MG-63 cells were cultured with DMSO, 3-MA or Baf, and then treated with cisplatin (20 μM) for 24 hr. Cell viability was measured using the WST-1 assay. The values are represented as a mean±s.d.m. (n=3). ** denotes p<0.05 by t-test. (j) Cell viability of GFRα1-overexpressing osteosarcoma cells after cisplatin treatment in the presence of Beclin 1 (20 nM) or HMGB1 (20 nM) […] siRNA. Control or GFRα1-overexpressing MG-63 cells were cultured with Beclin 1 or HMGB1 siRNA for 48 hr and then treated with cisplatin (20 μM) for 24 hr. Cell viability was measured using the WST-1 assay. The values are represented as a mean±s.d.m. (n=3). ** denotes p<0.05 by t-test. (k) The effect of GFRα1 deficiency or overexpression on colony formation in the presence of cisplatin (20 μM). Equal number (1×10^4 cells) of control (control shRNA), GFRα1-deficient (GFRα1 shRNA), control (empty vector), and GFRα1-overexpressing (GFRα1 expressing vector) MG-63 cells were plated. All of cell lines were incubated with cisplatin (20 μM) for 10 days. Colonies were stained by crystal violet for visualization. Left, representative images of colony formation. Right, quantitative analysis of the number of colonies and plating efficiency. […]

Cn1cnc(N)c2ncnc1-2 [3-MA, 3-methyladenine]
cisplatin-induced puncta formation (MG-63 cells pretreated with 3-MA (10 mM) 2 hr, cisplatin 20 μM 24 hr): blocked
puncta formation (control and GFRα1-overexpressing cells, 3-MA pretreatment 2 hr): blocked

N.N.[Cl][Pt][Cl] [cisplatin, Cis-Diamineplatinum(II) dichloride]
LC3 puncta formation (GFRα1-deficient MG-63 cells): no change
LC3 puncta formation (MG-63 cells transfected with control shRNA): significantly increased

B1: GDNF: glial cell line-derived neurotrophic factor, the major ligand of GFRα1 (protein, UniProt P39905 78-211, looked up)
Glial cell line-derived …: SPDKQMAVLPRRERNRQAAAANPENSRGKGRRGQRGKNRGCVLTAIHLNVTDLGLGYETKEELIFRYCSGSCDAAETTYDKILKNLSRNRRLVSDKVGQACCRPIAFDDDLSFLDDNLVYHILRKHSAKRCGCI
GFRα1-mediated autophagy after cisplatin treatment (control and GFRα1-overexpressing MG-63 cells, GDNF): did not have an effect
LC3 puncta formation on addition of GDNF (control or GFRα1-overexpressing cells, GDNF 24 h): no significant effect
